In assay [1] the target is T1, Aplysia cyclase (Aplysia californica, UniProt P29241).
T1 construct: wild-type
T1 sequence (P29241 25-282): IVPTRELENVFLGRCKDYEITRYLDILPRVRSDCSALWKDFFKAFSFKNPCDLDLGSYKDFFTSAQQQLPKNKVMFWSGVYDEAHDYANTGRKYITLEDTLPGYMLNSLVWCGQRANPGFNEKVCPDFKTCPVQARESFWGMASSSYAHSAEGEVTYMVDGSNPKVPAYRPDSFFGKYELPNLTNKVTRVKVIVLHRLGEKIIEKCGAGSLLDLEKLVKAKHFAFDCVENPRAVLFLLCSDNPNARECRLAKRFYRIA
Kind of assay: X-ray crystallography, […] cIDPR (authors' unpublished data, Supplementary Figure S2). It counts as binding.

For assay [2], the target named is T2, CD38 (shCD38) (Homo sapiens, UniProt P28907).
T2 construct: human CD38 catalytic domain (shCD38)
T2 sequence (P28907 45-300 limits assumed): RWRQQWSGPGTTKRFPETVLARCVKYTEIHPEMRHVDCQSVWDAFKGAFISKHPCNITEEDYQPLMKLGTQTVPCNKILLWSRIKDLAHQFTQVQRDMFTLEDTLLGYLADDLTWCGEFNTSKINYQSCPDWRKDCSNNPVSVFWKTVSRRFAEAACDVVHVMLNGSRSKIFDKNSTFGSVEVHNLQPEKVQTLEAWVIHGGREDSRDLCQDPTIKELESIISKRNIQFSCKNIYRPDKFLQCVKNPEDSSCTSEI
Kind of assay: inhibition of cADPR hydrolysis, fluorimetric cycling assay; also hydrolysed by shCD38 (RP-HPLC). It counts as biochemical. As to conditions: read-out: L-Ribose / IC50.

The target in assay [3] is T2, CD38 (shCD38). Kind of assay: inhibition of cADPR hydrolysis, fluorimetric cycling assay. It counts as biochemical. As to conditions: read-out: L-Ribose / IC50.

Regarding `O=c1c2ncn3c2ncn1[C@@H]1O[C@H](COP(=O)(O)OP(=O)(O)OC[C@H]2O[C@@H]3[C@H](O)[C@@H]2O)[C@@H](O)[C@H]1O` [compound 2, cIDPR], the “ligand species seen in crystal structure” value in assay [1] was “both linear IDPR and the cyclic N1-cIDPR are present and close to each other, with cIDPR in an upside-down orientation”. For `O=c1c2ncn3c2ncn1[C@H]1O[C@@H](COP(=O)(O)OP(=O)(O)OC[C@H]2O[C@@H]3[C@H](O)[C@@H]2O)[C@H](O)[C@@H]1O` [compound 5, L-cIDPR], the IC50 in assay [2] worked out at 526 ± 36 µM. In the case of `Nc1nc2c(=O)n3cnc2n1[C@@H]1O[C@H](COP(=O)(O)OP(=O)(O)OC[C@@H]2O[C@H]3[C@@H](O)[C@H]2O)[C@@H](O)[C@H]1O` [compound 7, 8-NH2-L-cIDPR], the IC50 in assay [3] stood at 21 ± 2 µM.

(Values after article PMC5700923, “Second messenger analogues highlight unexpected substrate sensitivity of CD38: total synthesis of the hybrid “L-cyclic inosine 5′-diphosphate ribose”” (Scientific Reports, 2017).)
